Laboratory results published in DBAASP.
Converted amounts (≈) assume the structure as drawn.

What was measured:
Assay in all cases: ≥ marks a high value that may be exact or a test limit, other limits are often not marked, values filed in µg/mL are converted to µM
[1] = tested on: Pseudomonas aeruginosa PAO1
[2] = tested on: Staphylococcus aureus 209P
[3] = tested on: Escherichia coli C600
[4] = tested on: Bacillus subtilis DELTA
[5] = tested on: Escherichia coli DH5alpha
[6] = tested on: Zymomonas mobilis ATCC 10988
[7] = tested on: Candida parapsilosis
[8] = tested on: Staphylococcus aureus ATCC 29213
[9] = tested on: Klebsiella aerogenes ATCC 13048
[10] = tested on: Bacillus cereus ATCC 11778
[11] = tested on: Escherichia coli ATCC 25922
[12] = tested on: Salmonella enterica subsp. enterica serovar Typhimurium ATCC 14028
[13] = tested on: Streptococcus mutans UA159
[14] = tested on: Streptococcus sobrinus ATCC 6715
[15] = tested on: Streptococcus sanguinis ATCC 10556
[16] = tested on: Escherichia coli NBRC 3972
[17] = tested on: Staphylococcus aureus NBRC 13276
[18] = tested on: Pseudomonas aeruginosa NBRC 13275

SMILES: CC(C)[C@@H]1NC(=O)CNC(=O)[C@H](CCCN=C(N)N)NC(=O)[C@H](CCCN=C(N)N)NC(=O)[C@H](CCCN=C(N)N)NC(=O)[C@H](C)NC(=O)[C@H](Cc2ccc(O)cc2)NC(=O)[C@H](C(C)C)NC(=O)[C@@H](NC(=O)[C@H](Cc2c[nH]c3ccccc23)NC(=O)[C@@H](N)CCCN=C(N)N)CSSC[C@@H](C(=O)N[C@@H](Cc2c[nH]c3ccccc23)C(=O)O)NC(=O)[C@H](CCCN=C(N)N)NC(=O)[C@H](CCCN=C(N)N)NC(=O)[C@H](Cc2ccc(O)cc2)NC(=O)[C@H](CCCN=C(N)N)NC1=O [RWCVYARRRGVRYRRCW]
- MIC [1]: 50 µM (≈ 117 µg/mL)
- MIC [2]: 3.13 µM (≈ 7.33 µg/mL)
- MIC [3]: 3.13 µM (≈ 7.33 µg/mL)

SMILES: CC[C@H](C)[C@H](NC(=O)[C@H](Cc1ccccc1)NC(=O)[C@H](CCCCN)NC(=O)[C@H](CC(C)C)NC(=O)[C@H](CC(C)C)NC(=O)[C@@H](N)CCCCN)C(=O)N[C@@H](CCCCN)C(=O)N[C@@H](CCCCN)C(=O)N[C@@H](CC(C)C)C(=O)N[C@@H](CC(C)C)C(N)=O [KLLKFIKKLL]
- MIC [4]: ≥ 32.2 µM
- MIC [5]: ≥ 322 µM
- MIC [6]: 8.04 µM (≈ 9.99 µg/mL)
- MIC [7]: 24.1 µM (≈ 30 µg/mL)

SMILES: CC[C@H](C)[C@H](N)C(=O)N[C@@H](CC(C)C)C(=O)NCC(=O)N[C@@H](CCCCN)C(=O)N[C@H](C(=O)N[C@@H](Cc1c[nH]c2ccccc12)C(=O)N[C@@H](CCC(=O)O)C(=O)NCC(=O)N[C@H](C(=O)N[C@@H](CCCCN)C(=O)N[C@@H](CO)C(=O)N[C@@H](CC(C)C)C(=O)N[C@@H](Cc1ccccc1)C(N)=O)C(C)C)C(C)C [ILGKVWEGVKSLF]
- MIC [8]: > 67.8 µM
- MIC [9]: ≥ 67.8 µM
- MIC [10]: ≥ 67.8 µM
- MIC [11]: > 67.8 µM
- MIC [12]: > 67.8 µM

SMILES: NCCCC[C@H](NC(=O)CNC(=O)[C@H](Cc1ccccc1)NC(=O)[C@H](CCCCN)NC(=O)[C@H](Cc1ccccc1)NC(=O)[C@H](Cc1ccccc1)NC(=O)[C@H](CCCCN)NC(=O)[C@H](CCCCN)NC(=O)[C@H](Cc1ccccc1)NC(=O)[C@H](Cc1ccccc1)NC(=O)[C@H](CCCCN)NC(=O)CNC(=O)[C@H](Cc1c[nH]c2ccccc12)NC(=O)CN)C(=O)O [GWGKFFKKFFKFGK]
- MIC [13]: 9.13 µM (≈ 16 µg/mL)
- MIC [14]: 9.13 µM (≈ 16 µg/mL)
- MIC [15]: 9.13 µM (≈ 16 µg/mL)

SMILES: CC[C@H](C)[C@H](NC(=O)[C@H](CCCN=C(N)N)NC(=O)[C@H](CCCCN)NC(=O)[C@H](Cc1ccccc1)NC(C)=O)C(=O)N[C@H](C(=O)N[C@@H](CCC(N)=O)C(=O)N[C@@H](CC(C)C)C(=O)N[C@@H](CC(C)C)C(=O)N[C@@H](CCCCN)C(=O)N[C@@H](CCCCN)C(=O)N[C@@H](CC(C)C)C(=O)N[C@@H](CC(C)C)C(=O)N[C@@H](CCCN=C(N)N)C(N)=O)C(C)C [FKRIVQLLKKLLR]
- MIC [4]: 6.04 µM (≈ 10.2 µg/mL)
- MIC [5]: ≥ 60.4 µM
- MIC [1]: 1.81 µM (≈ 3.07 µg/mL)
- MIC [6]: 3.02 µM (≈ 5.12 µg/mL)
- MIC [7]: 24.2 µM (≈ 41 µg/mL)

SMILES: CC(C)[C@H](NC(=O)[C@H](CCCCN)NC(=O)[C@H](C)NC(=O)[C@H](C)NC(=O)[C@H](CCCCN)NC(=O)[C@H](CCCCN)NC(=O)[C@H](Cc1ccccc1)NC(=O)[C@H](Cc1ccccc1)NC(=O)[C@H](CCCCN)NC(=O)CNC(=O)[C@H](Cc1c[nH]c2ccccc12)NC(=O)CN)C(=O)NCC(=O)N[C@@H](CCCCN)C(=O)N[C@@H](CCCCN)C(=O)N[C@H](C(=O)NCC(=O)O)C(C)C [GWGKFFKKAAKVGKKVG]
- MIC [13]: ≥ 279 µM
- MIC [14]: ≥ 279 µM
- MIC [15]: ≥ 279 µM

SMILES: CC(=O)N[C@@H](CCCCN)C(=O)N[C@@H](CCCCN)C(=O)NCC(=O)N[C@@H](CCCCN)C(=O)N[C@@H](CCCCN)C(=O)NCC(=O)N[C@@H](CCCCN)C(=O)N[C@@H](CCCCN)C(=O)NCC(N)=O [KKGKKGKKG]
- MIC [16]: ≥ 800 µM
- MIC [17]: ≥ 800 µM
- MIC [18]: ≥ 800 µM
